For data set [1] the following is noted: cited from earlier work.
Data set [2] is described as follows: Stability in pH 5 buffer / mildly acidic aqueous solution (HPLC or TLC, onset of cloudiness). Conditions: room temperature. It counts as physicochemical. Here is the method: **Stabilities were determined in pH 5 buffer solution by one of the two
methods indicated below.
(a) 9.5 mg of sample was dissolved in 0.2 ml of EtOH and 0.2 ml of pH 5
buffer solution and let stand at room temperature. The progress of
decomposition was checked by HPLC or TLC and observation of the onset of
(b) 0.5 mg of sample was dissolved in 0.1 ml of EtOH and 0.9 ml of pH 5
buffer solution, the other conditions were the same as in (a) above. All
samples were stable under these conditions for at least 24 hours. No
hydrolysis was detectable by HPLC or TLC during this time period.

For data set [3] the following is noted: cited from earlier work. This is another data set of the same source.
A short description of data set [4]: Relative solubility by the 1-octanol and water partition method (UV absorption at 228 nm), taxol = 1. The protocol: In separate experiments, taxol derivative 4 and 2'-succinyl taxol (R=NaO2 CCH2 CH2 CO2) were dissolved in a mildly basic aqueous solution.
*Solubilities were determined by using the 1octanol and water partition
method.Sample concentrations in water were determined by UV absorptions a […]

Data set [5] is described as follows: Stability in mildly basic aqueous solution. The format is physicochemical.
Data set [6] concerns M109 lung carcinoma. Description: In vivo activity against M109 lung carcinoma implanted intraperitoneally (mice M109 model), median survival. Also on record: species or system Balb/o x DBA/2 F1 hybrid mice. Here is the method:
Balb/o x DBA/2 F1 hybrid mice were implanted intraperitoneally, as described by William Rose in "Evaluation of Madison 109 Lung Carcinoma as a Model for Screening Antitumor Drugs, "Cancer Treatment Reports, 65 No. 3-4 (1981), with 0.5 mL of a 2% (w/v) brei of M109 lung carcinoma (the mice M109 model).
Mice were treated with a compound under study by receiving intraperitoneal injections of various doses on either Day 1, 5, and 9 post-tumor implant or Days 5 and 8 post-implant. Mice were followed daily for survival until approximately 75-90 days post-tumor implant. One group of mice per experiment remained untreated and served as the control group.
Median survival times of compound-treated (T) mice were compared to the median survival time of the control (C) mice. The ratio of the two values for each compound-treated group of mice was multiplied by 100 and expressed as a percentage (i.e.% T/C) in Table 2 for certain representative compounds.

Data set [7] concerns B16 melanoma cells. Conditions: compared with taxol; cited from earlier work.
For data set [8] the following is noted: cited from earlier work. This is another data set of the same source.
For data set [9], the system named is tubulin. The conditions noted are these: cited from earlier work.
[10] abbreviates: method (b): 0.5 mg in 0.1 ml EtOH and 0.9 ml pH 5 buffer.
Where [11] appears, read: method (a): 9.5 mg in 0.2 ml EtOH and 0.2 ml pH 5 buffer.

Counter-ions that a name gives are not always drawn.

Take `CC(=O)O[C@H]1C(=O)[C@@]2(C)[C@H]([C@H](OC(=O)c3ccccc3)[C@]3(O)C[C@H](OC(=O)[C@H](OC(=O)CCC(=O)NCCS(=O)(=O)O)[C@@H](NC(=O)c4ccccc4)c4ccccc4)C(C)=C1C3(C)C)[C@]1(OC(C)=O)CO[C@@H]1C[C@@H]2O` [--O2 CCH2 CH2 CONHCH2 --CH2 SO3 Na, 2'-([4-((2-sulfoethyl)amino)-1,4-dioxobutyl]oxy)taxol sodium salt]: the “antineoplastic activity in mice” value in data set [1] is listed as “active as antineoplastic agents in mice”. The “Stabilities at pH 5” value in [2] (setting [10]) is given as above 24 h. Besides, in [3], the “aqueous solubility” value is “improved water-solubility as compared with taxol”.
On to `CC(=O)O[C@H]1C(=O)[C@@]2(C)[C@H]([C@H](OC(=O)c3ccccc3)[C@]3(O)C[C@H](OC(=O)[C@H](OC(=O)c4ccccc4S(=O)(=O)O)[C@@H](NC(=O)c4ccccc4)c4ccccc4)C(C)=C1C3(C)C)[C@]1(OC(C)=O)CO[C@@H]1C[C@@H]2O` [Compound 11, 2'-(2-Sulfobenzoyl) taxol, sodium salt], for which the “Relative Solubility (p')” value in [4] is on record as 96. In addition, in [2] (setting [10]), the “Stabilities at pH 5” value is above 24 h.
Consider `CC(=O)O[C@H]1C(=O)[C@@]2(C)[C@H]([C@H](OC(=O)c3ccccc3)[C@]3(O)C[C@H](OC(=O)[C@H](OC(=O)CCS(=O)(=O)O)[C@@H](NC(=O)c4ccccc4)c4ccccc4)C(C)=C1C3(C)C)[C@]1(OC(C)=O)CO[C@@H]1C[C@@H]2O` [--O2 CCH2 CH2 SO3 Na, 2'-[(3-sulfo-1-oxopropyl)oxy]taxol sodium salt], for which the “antineoplastic activity in mice” value in data set [1] is “active as antineoplastic agents in mice”. In addition, in data set [2] (setting [10]), the “Stabilities at pH 5” value is recorded as above 24 h. Further, the “aqueous solubility” value in [3] was “improved water-solubility as compared with taxol”.
Turning to `CC(=O)O[C@H]1C(=O)[C@@]2(C)[C@H]([C@H](OC(=O)c3ccccc3)[C@]3(O)C[C@H](OC(=O)[C@H](OC(=O)CCC(=O)O)[C@@H](NC(=O)c4ccccc4)c4ccccc4)C(C)=C1C3(C)C)[C@]1(OC(C)=O)CO[C@@H]1C[C@@H]2O` [2'-succinyl taxol, 2'-succinyl taxol (R=NaO2 CCH2 CH2 CO2), reference compound], the “time until solution turned cloudy” value in [5] is given as “less than 24 hours”. Moreover, in data set [5] (read-out: decomposed), the degraded at 24 h is around 50%.
A word on the T/C: it is the result in the treated group divided by that in the control group, in per cent. Turning to “2'-(4-benzyloxocarbonylbensoyl -7-(4-carboxybensoyl)taxol [Compound 17]”, the T/C was found to be 97% in data set [6] (Q03Dx2;5, ip/ip, dose 13); 100% in [6] (Q03Dx2;5, ip/ip, dose 26); 109% in data set [6] (Q03Dx2;5, ip/ip, dose 52).
In the case of `CCN(CC)CCNC(=O)c1ccc(C(=O)O[C@@H](C(=O)O[C@H]2C[C@@]3(O)[C@@H](OC(=O)c4ccccc4)[C@@H]4[C@]5(OC(C)=O)CO[C@@H]5C[C@H](O)[C@@]4(C)C(=O)[C@H](OC(C)=O)C(=C2C)C3(C)C)[C@@H](NC(=O)c2ccccc2)c2ccccc2)cc1` [Compound 13b, 2'-[4-([2-(N,N-diethylamino)ethyl]aminocarbonyl)benzoyl]taxol, hydrochloride], the “Stabilities at pH 5” value in data set [2] (setting [11]) was above 24 h. Besides, the T/C in data set [6] (Z03Dx2;5, ip/ip, dose 50) worked out at 118%; in [6] (Z03Dx2;5, ip/ip, dose 100), 118%; in [6] (Z03Dx2;5, ip/ip, dose 200) it was 124%.
On to `CC(=O)O[C@H]1C(=O)[C@]2(C)[C@@H](OC(=O)c3ccccc3C(=O)O)C[C@H]3OC[C@@]3(OC(C)=O)[C@H]2[C@H](OC(=O)c2ccccc2)[C@]2(O)C[C@H](OC(=O)[C@H](OC(=O)c3ccccc3C(=O)O)[C@@H](NC(=O)c3ccccc3)c3ccccc3)C(C)=C1C2(C)C` [Compound 15, Taxol 2',7-di(sodium 1,2-benzenedicarboxylate)], for which the T/C in data set [6] (Z03Dx2;5, site/route not given, dose 15) amounted to 100%; in data set [6] (Z03Dx2;5, site/route not given, dose 30), 103%; in data set [6] (Z03Dx2;5, site/route not given, dose 60) it was 106%.
As to `CC(=O)O[C@H]1C(=O)[C@@]2(C)[C@H]([C@H](OC(=O)c3ccccc3)[C@]3(O)C[C@H](OC(=O)[C@H](OC(=O)CCN(C)C)[C@@H](NC(=O)c4ccccc4)c4ccccc4)C(C)=C1C3(C)C)[C@]1(OC(C)=O)CO[C@@H]1C[C@@H]2O` [2'-[3-(N,N-dimethylamino)propionyl]taxol], the “inhibition of proliferation of B16 melanoma cells relative to taxol” value in data set [7] is reported as “to an extent similar to that of taxol”.
For the compound `CC(=O)O[C@H]1C(=O)[C@@]2(C)[C@H]([C@H](OC(=O)c3ccccc3)[C@]3(O)C[C@H](OC(=O)[C@H](OC(=O)CCC(=O)NCCCS(=O)(=O)O)[C@@H](NC(=O)c4ccccc4)c4ccccc4)C(C)=C1C3(C)C)[C@]1(OC(C)=O)CO[C@@H]1C[C@@H]2O` [2'-([4-((3-sulfopropyl)amino-1,4-dioxobutyl]oxy)taxolsodium salt], in [1], the “antineoplastic activity in mice” value was “active as antineoplastic agents in mice”. Further, in data set [3], the “aqueous solubility” value was “improved water-solubility as compared with taxol”.
As for `CC(=O)O[C@H]1C(=O)[C@@]2(C)[C@H]([C@H](OC(=O)c3ccccc3)[C@]3(O)C[C@H](OC(=O)[C@H](OC(=O)CN(C)C)[C@@H](NC(=O)c4ccccc4)c4ccccc4)C(C)=C1C3(C)C)[C@]1(OC(C)=O)CO[C@@H]1C[C@@H]2O` [2'-(N,N-dimethylglycyl) taxol], the “inhibition of proliferation of B16 melanoma cells relative to taxol” value in data set [7] is given as “to an extent similar to that of taxol”.
Take `CC(=O)O[C@H]1C(=O)[C@@]2(C)[C@H]([C@H](OC(=O)c3ccccc3)[C@]3(O)C[C@H](OC(=O)[C@H](OC(=O)c4ccc(S(=O)(=O)O)cc4)[C@@H](NC(=O)c4ccccc4)c4ccccc4)C(C)=C1C3(C)C)[C@]1(OC(C)=O)CO[C@@H]1C[C@@H]2O` [Compound 12, 2'-(4-sulfobenzoyl) taxol, sodium salt]: the “Relative Solubility (p')” value in data set [4] came out at 166. Further, the “Stabilities at pH 5” value in [2] (setting [10]) is on record as above 24 h.
As for `CC(=O)O[C@H]1C(=O)[C@@]2(C)[C@H]([C@H](OC(=O)c3ccccc3)[C@]3(O)C[C@H](OC(=O)[C@H](OC(=O)c4ccc(C(=O)O)cc4)[C@@H](NC(=O)c4ccccc4)c4ccccc4)C(C)=C1C3(C)C)[C@]1(OC(C)=O)CO[C@@H]1C[C@@H]2O` [Compound 7, Taxol 2'-(sodium 1,4-benzenedioarboxylate)], the “solubility relative to ortho benzoyl carboxylate derivative 4” value in data set [4] (compared with 4) is listed as “twice as soluble”. Besides, in data set [2] (setting [11]), the “Stabilities at pH 5” value was above 24 h. The T/C came out at 112% in data set [6] (Q03Dx2;5, ip/ip, dose 15); 141% in data set [6] (Q03Dx2;5, ip/ip, dose 30); 141% in data set [6] (Q03Dx2;5, ip/ip, dose 60). The “in vivo biological activity relative to derivative 4” value in data set [6] (mice M109 model) is reported as “superior in vivo biological activity”.
On to `CC(=O)O[C@H]1C(=O)[C@@]2(C)[C@H]([C@H](OC(=O)c3ccccc3)[C@]3(O)C[C@H](OC(=O)[C@H](OC(=O)c4ccccc4C(=O)O)[C@@H](NC(=O)c4ccccc4)c4ccccc4)C(C)=C1C3(C)C)[C@]1(OC(C)=O)CO[C@@H]1C[C@@H]2O` [Compound 4, Taxol 2'-(sodium 1,2-benzenedicarboxylate)], for which, in data set [5], the appearance of solution entry is “remained clear”. Besides, in data set [5], the “extent of decomposition” value is given as “remained substantially intact”. In data set [4], the “Relative Solubility (p')” value was 3. Also, the “Stabilities at pH 5” value in data set [2] (setting [11]) was above 24 h. The T/C is 106% in data set [6] (Q03Dx2;5, ip/ip, dose 15); 135% in data set [6] (Q03Dx2;5, ip/ip, dose 30); 141% in data set [6] (Q03Dx2;5, ip/ip, dose 60).
Take `CC(=O)O[C@H]1C(=O)[C@]2(C)[C@@H](OC(C)=O)C[C@H]3OC[C@@]3(OC(C)=O)[C@H]2[C@H](OC(=O)c2ccccc2)[C@]2(O)C[C@H](OC(=O)[C@H](OC(C)=O)[C@@H](NC(=O)c3ccccc3)c3ccccc3)C(C)=C1C2(C)C` [2',7-diacetyltaxol]: the “hydrolysis of acyl substituents under in vivo conditions” value in data set [8] is given as “readily hydrolyzed”.
On to `CC(=O)O[C@H]1C(=O)[C@@]2(C)[C@H]([C@H](OC(=O)c3ccccc3)[C@]3(O)C[C@H](OC(=O)[C@H](OC(=O)c4cc(C(=O)O)cc(C(=O)O)c4)[C@@H](NC(=O)c4ccccc4)c4ccccc4)C(C)=C1C3(C)C)[C@]1(OC(C)=O)CO[C@@H]1C[C@@H]2O` [Compound 8c, Taxol 2'-(disodium 1,3,5-benzenetricarboxylate)], for which, in data set [2] (setting [10]), the “Stabilities at pH 5” value is reported as above 24 h.
As for `CC[C@]1(O)C[C@@H]2CN(CCc3c([nH]c4ccccc34)[C@@](C(=O)OC)(c3cc4c(cc3OC)N(C)[C@H]3[C@@](O)(C(=O)OC)[C@H](OC(C)=O)[C@]5(CC)C=CCN6CC[C@]43[C@@H]65)C2)C1` [vinblastine], the “effect on microtubule / tubulin polymer formation” value in [9] is recorded as “prevent microtubule formation”.

Values taken from US5411984A, “Water soluble analogs and prodrugs of taxol” (Virginia Tech Intellectual Properties, Inc., priority 1992, dated 1995).
